Measurements reported in patent publication US20070202203A1, “ANTI-AGEING COMPOSITION” (L'OREAL, priority 2006, published 2007).

Test system: dermal equivalent consisting of a collagen matrix seeded with normal human fibroblasts
Experiment: Dermodecontracting effect: spontaneous contraction of dermal equivalent
Format: cell-based
Details: surface area after 24 h of contraction; control = 100; manganese gluconate 0.0005%, adenosine 0.004%
Description: These conditions are intended to mimic in vitro, the dermal contractile phenomena that occur during dermal tensing of the face, for example during facial expressions. Under these conditions, in fact, the cells spontaneously express tensile forces that induce retraction of the collagen gel. […] The measurement of this surface area makes it possible to evalue the relaxing or dermocontracting effects of the substances previously brought into contact with the dermal equivalent. […] The experiment is repeated three times. The dermal equivalents are prepared as described in Asselineau et al., Exp. Cell. Res., 1985, 159, 536-539; Models in dermatology, 1987, vol 3 pp 1-7, in the following proportions: The collagen used is collagen type I (commercial solution), but collagen type III or IV can also be used. It is extracted from rat tails or from calf skin by acid hydrolysis and conserved in an acidic medium at […]; it polymerizes naturally by heating to 37° C. and by decreasing the degree of acidity. The collagen is dialysed beforehand against successive baths of water +acetic acid. […] For this, a digital image is acquired for each treated or nontreated dermal equivalent by means of a camera (CCD camera—Iris Sony DXC—107P) and the surface area is then calculated on each image by means of an image analysis system (Zeiss Axiovision 3.0). […]

Molecule	% contraction [%]
Nc1ncnc2c1ncn2[C@@H]1O[C@H](CO)[C@@H](O)[C@H]1O [Adenosine, adenosine]	82
manganese gluconate	89
